Values quoted from earlier work as cited in US20070202158A1, “Methods Of Administering Water-Soluble Prodrugs Of Propofol For Extended Sedation” (MGI GP, Inc., priority 2003, published 2007).

Test system: patients
Conditions: anesthetic induction doses; cited from earlier work

Q: With `CC(C)c1cccc(C(C)C)c1O` [propofol, 2,6-diisopropylphenol] as the molecule, how does the “patients with respiratory consequences, including reduction in tidal volume and apnea” value read?
A: Its value is “up to 83%”.
